From patent US20230116196A1, “METHOD OF TREATING CNS DISORDERS WITH NEU[…] GABAERGIC COMPOUNDS” (priority 2017, published 2023) come the findings set out here.

The target in one experiment is T1, α1β2γ2 GABAA receptors (Homo sapiens, UniProt P14867+P18507+P47870).
T1 construct: expressed in transfected cells; host or cells: LTK cells, stably transfected
Briefly: Whole-cell patch clamp: potentiation of GABA EC20 currents at recombinant α1β2γ2 GABAA receptors. The class given is cell-based. Here is the method:
Cellular electrophysiology was used to measure the pharmacological properties of ALLO, ganaxolone and SGE-516 in heterologous cell systems. Compounds were tested for their ability to affect GABA mediated currents at a submaximal agonist dose (GABA EC20=2 μM).
LTK cells were stably transfected with the α1β2γ2 subunits of the GABA receptor and CHO cells are transiently transfected with the α4β3γ subunits via the Lipofecatamine method. Cells were passaged at a confluence of about 50-80% and then seeded onto 35 mm sterile culture dishes containing 2 ml culture complete medium without antibiotics or antimycotics. Cells were cultivated at a density that enabled the recording of single cells without visible connections to other cells.
Whole-cell currents were measured with HEKA EPC-10 amplifiers using PatchMaster software. Bath solution for all experiments contained (in mM): NaCl 137, KCl 4, CaCl2 1.8, MgCl2 1, HEPES 10, D-Glucose 10, pH 7.4 with NaOH. Intracellular (pipette) solution contained (in mM): KCl 130, MgCl2 1, Mg-ATP 5, HEPES 10, EGTA 5, pH 7.2 with KOH. During experiments, cells and solutions were maintained at room temperature (19° C.-30° C.). For manual patchclamp recordings, cell culture dishes were placed on the dish holder of the microscope and continuously perfused (1 ml/min) with bath solution. After formation of a Gigaohm seal between the patch electrode and the cell (pipette resistance range: 2.5 MΩ-6.0MΩ; seal resistance range: >1 GΩ) the cell membrane across the pipette tip was ruptured to assure electrical access to the cell interior (whole-cell patch configuration).
Cells were voltage-clamped at a holding potential of −80 mV. GABAA receptors were activated by 2 μM GABA and compounds were sequentially applied at increasing concentrations for 30 s prior to a 2 s application of GABA. GABA and compounds were applied to cells via the Dynaflow perfusion system (Cellectricon, Sweden). Test compounds were dissolved in DMSO to form 10 mM stock solution and serially diluted to 0.01, 0.1, 1, and 10 μM in bath solution. […] All concentrations of test compound were tested on each cell. The relative percentage potentiation was defined as the peak amplitude in response to GABA EC20 in the presence of test compound divided by the peak amplitude in response to GABA EC20 alone, multiplied by 100.
ALLO and ganaxolone are known PAMs of both synaptic and extrasynaptic GABAAR-mediated currents. […] The α1β2γ2 or α4β3δ subunit combinations were chosen as representatives of typical synaptic and extrasynaptic GABAA receptors respectively.
(The patch-clamp technique gives a direct electrical read-out from membranes.)

Experiment [1] deals with dentate gyrus granule cells (DGGCs). Briefly: Acute NAS exposure: tonic current in DGGCs of hippocampal slices. The experiment is classed as cell-based, mouse. The note with it: 100 nM, 10 min acute exposure; mean±SEM. The method, then:
Brain slices were prepared from 3- to 5-week-old male C57 mice. Mice were anesthetized with isoflurane, decapitated, and brains were rapidly removed and submerged in ice-cold cutting solution containing (mM): 126 NaCl, 2.5 KCl, 0.5 CaCl2, 2 MgCl2, 26 NaHCO3, 1.25 NaH2PO4, 10 glucose, 1.5 sodium pyruvate, and 3 kynurenic acid. Coronal 310 μm thick slices were cut with the vibratome VT1000S (Leica Microsystems, St Louis, Mo., USA). The slices were then transferred into incubation chamber filled with prewarmed (31-32° C.) oxygenated artificial cerebro-spinal fluid (ACSF) of the following composition (in mM): 126 NaCl, 2.5 KCl, 2 CaCl2, 2 MgCl2, 26 NaHCO3, 1.25 NaH2PO4, 10 glucose, 1.5 sodium pyruvate, 1 glutamine, 3 kynurenic acid and 0.005 GABA bubbled with 95% O2-5% CO2. Slices were allowed to recover at 32° C. for at least 1 hr before recording. Exogenous GABA was added in an attempt to standardize ambient GABA in the slice and provide an agonist source for newly inserted extrasynaptic GABAARs. […]
Whole-cell currents were recorded from the dentate gyrus granule cells (DGGCs) in 310-μm-thick coronal hippocampal slices. […] A 5 min period for stabilization after obtaining the whole-cell recording conformation (holding potential of −60 mV) was allowed before currents were recorded using an Axopatch 200B amplifier (Molecular Devices), low-pass filtered at 2 kHz, digitized at 20 kHz (Digidata 1440A; Molecular Devices), and stored for offline analysis.
For tonic current measurements, an all-points histogram was plotted for a 10 s period before and during 100 μM picrotoxin application, once the response reached a plateau level. […] Series resistance and whole-cell capacitance were continually monitored and compensated throughout the course of the experiment. […] Spontaneous inhibitory post-synaptic currents (sIPSCs) were analyzed using the mini-analysis software (version 5.6.4; Synaptosoft, Decatur, Ga.). […] Only recordings with a minimum of 200 events fitting these criteria were analyzed. sIPSCs amplitude, and frequency from each experimental condition was pooled and expressed as mean±SEM. […]

Experiment [2] relates to GABA receptor trafficking. Briefly: GABA receptor trafficking measured by GABAergic current density. The class given is cell-based. From the text: As shown in above examples, not all neurosteroids can modulate GABA receptor trafficking.
Experiment [3] has as its system dentate gyrus granule cells (DGGCs). In words: Acute NAS exposure: phasic currents (sIPSCs) in DGGCs of hippocampal slices. The class given is cell-based, mouse. The note with it: for mean sIPSC amplitude before versus during exposure / mean sIPSC decay time in the presence of NAS: 100 nM acute; for sIPSC Amplitude / sIPSC Decay / sIPSC Frequency: during acute 100 nM exposure. The method, then:
Brain slices were prepared from 3- to 5-week-old male C57 mice. Mice were anesthetized with isoflurane, decapitated, and brains were rapidly removed and submerged in ice-cold cutting solution containing (mM): 126 NaCl, 2.5 KCl, 0.5 CaCl2, 2 MgCl2, 26 NaHCO3, 1.25 NaH2PO4, 10 glucose, 1.5 sodium pyruvate, and 3 kynurenic acid. Coronal 310 μm thick slices were cut with the vibratome VT1000S (Leica Microsystems, St Louis, Mo., USA). The slices were then transferred into incubation chamber filled with prewarmed (31-32° C.) oxygenated artificial cerebro-spinal fluid (ACSF) of the following composition (in mM): 126 NaCl, 2.5 KCl, 2 CaCl2, 2 MgCl2, 26 NaHCO3, 1.25 NaH2PO4, 10 glucose, 1.5 sodium pyruvate, 1 glutamine, 3 kynurenic acid and 0.005 GABA bubbled with 95% O2-5% CO2. Slices were allowed to recover at 32° C. for at least 1 hr before recording. Exogenous GABA was added in an attempt to standardize ambient GABA in the slice and provide an agonist source for newly inserted extrasynaptic GABAARs.
After recovery, a single slice was transferred to a submerged, dual perfusion recording chamber (Warner Instruments, Hamden, Conn., USA) on the stage of an upright microscope (Nikon FN-1) with a 40× water immersion objective equipped with DIC/IR optics. Slices were maintained at 32° C. and gravity-superfused with ACSF solution throughout experimentation and perfused at rate of 2 ml/min with oxygenated (O2/CO2 95/5%) ACSF.
Whole-cell currents were recorded from the dentate gyrus granule cells (DGGCs) in 310-μm-thick coronal hippocampal slices. Patch pipettes (5-7MΩ) were pulled from borosilicate glass (World Precision Instruments) and filled with intracellular solution of the composition (in mM) as follows: 140 CsCl, 1 MgCl2, 0.1 EGTA, 10 HEPES, 2 Mg-ATP, 4 NaCl and 0.3 Na-GTP (pH=7.2 with CsOH). A 5 min period for stabilization after obtaining the whole-cell recording conformation (holding potential of −60 mV) was allowed before currents were recorded using an Axopatch 200B amplifier (Molecular Devices), low-pass filtered at 2 kHz, digitized at 20 kHz (Digidata 1440A; Molecular Devices), and stored for offline analysis.
For tonic current measurements, an all-points histogram was plotted for a 10 s period before and during 100 μM picrotoxin application, once the response reached a plateau level. Recordings with unstable baselines were discarded. Fitting the histogram with a Gaussian distribution gave the mean baseline current amplitude and the difference between the amplitudes before and during picrotoxin was considered to be the tonic current. The negative section of the all-points histogram which corresponds to the inward IPSCs was not fitted with a Gaussian distribution (Kretschmannova et al., 2013; Nusser and Mody, 2002). Series resistance and whole-cell capacitance were continually monitored and compensated throughout the course of the experiment. Recordings were eliminated from data analysis if series resistance increased by >20%. Spontaneous inhibitory post-synaptic currents (sIPSCs) were analyzed using the mini-analysis software (version 5.6.4; Synaptosoft, Decatur, Ga.). Minimum threshold detection was set to 3 times the value of baseline noise signal. To assess sIPSC kinetics, the recording trace was visually inspected and only events with a stable baseline, sharp rising phase, and single peak were used to negate artifacts due to event summation. Only recordings with a minimum of 200 events fitting these criteria were analyzed. sIPSCs amplitude, and frequency from each experimental condition was pooled and expressed as mean±SEM. To measure sIPSC decay, 100 consecutive events were averaged and the decay was fitted to a double exponential and the weighted decay constant (tw) was determined. Statistical analysis was performed by using Student t-test (paired and unpaired where appropriate), where p<0.05 is considered significant. […]

The structures appear in SMILES notation. Read-outs that look alike come from different tables or passages of the source.

T1 sequence (P14867 28-456): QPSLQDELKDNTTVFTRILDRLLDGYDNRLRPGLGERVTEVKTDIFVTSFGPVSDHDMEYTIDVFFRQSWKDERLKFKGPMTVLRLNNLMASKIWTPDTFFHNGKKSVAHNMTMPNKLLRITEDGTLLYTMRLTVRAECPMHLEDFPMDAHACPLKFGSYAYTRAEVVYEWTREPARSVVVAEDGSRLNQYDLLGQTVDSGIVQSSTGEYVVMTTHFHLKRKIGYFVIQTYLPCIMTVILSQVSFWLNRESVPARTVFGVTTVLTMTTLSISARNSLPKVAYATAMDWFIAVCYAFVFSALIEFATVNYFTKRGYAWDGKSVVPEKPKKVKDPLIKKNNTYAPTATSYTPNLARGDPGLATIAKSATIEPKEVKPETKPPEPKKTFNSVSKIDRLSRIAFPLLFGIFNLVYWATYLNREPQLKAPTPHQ
T1 sequence (P47870 25-512 limits assumed): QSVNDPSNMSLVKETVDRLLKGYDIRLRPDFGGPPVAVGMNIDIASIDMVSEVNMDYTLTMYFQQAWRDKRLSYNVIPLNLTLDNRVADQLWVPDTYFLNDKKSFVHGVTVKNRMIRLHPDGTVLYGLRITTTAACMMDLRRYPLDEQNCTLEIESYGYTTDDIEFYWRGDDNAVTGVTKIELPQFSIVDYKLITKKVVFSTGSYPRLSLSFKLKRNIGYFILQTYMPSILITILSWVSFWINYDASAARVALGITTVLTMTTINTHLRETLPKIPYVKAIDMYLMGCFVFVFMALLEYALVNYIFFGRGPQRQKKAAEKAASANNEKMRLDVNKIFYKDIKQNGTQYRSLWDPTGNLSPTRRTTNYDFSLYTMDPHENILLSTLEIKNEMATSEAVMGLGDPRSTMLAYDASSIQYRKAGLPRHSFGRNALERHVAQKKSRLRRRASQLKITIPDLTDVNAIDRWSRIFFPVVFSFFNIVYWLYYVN
T1 sequence (P18507 40-475): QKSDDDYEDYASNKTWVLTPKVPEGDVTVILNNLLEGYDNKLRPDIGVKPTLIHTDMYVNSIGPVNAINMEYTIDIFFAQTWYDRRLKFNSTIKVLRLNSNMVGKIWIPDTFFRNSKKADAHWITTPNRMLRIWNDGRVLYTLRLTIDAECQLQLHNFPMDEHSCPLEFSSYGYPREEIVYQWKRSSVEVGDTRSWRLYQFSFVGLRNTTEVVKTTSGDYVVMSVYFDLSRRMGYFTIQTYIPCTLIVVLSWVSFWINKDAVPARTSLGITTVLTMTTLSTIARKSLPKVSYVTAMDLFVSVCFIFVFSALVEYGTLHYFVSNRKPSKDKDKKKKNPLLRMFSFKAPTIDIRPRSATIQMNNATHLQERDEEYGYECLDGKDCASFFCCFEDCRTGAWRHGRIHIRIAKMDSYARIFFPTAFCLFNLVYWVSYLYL

Regarding `CC(=O)[C@H]1CC[C@H]2[C@@H]3CC[C@H]4C[C@](C)(O)CC[C@]4(C)[C@H]3CC[C@]12C` [Ganaxolone], the concentration for a half-maximal effect (EC50) at α1β2γ2 GABAA receptors is 251 nM. Further, in experiment [1], the “tonic current during acute exposure” value stood at 78.8±23.2 pA. Moreover, the “modulation of GABA receptor trafficking” value in experiment [2] was “did not modulate”. In experiment [3], the “mean sIPSC amplitude before versus during exposure” value is “no significant difference”, the “mean sIPSC decay time in the presence of NAS” value (“mean sIPSC decay time” for short) was “significantly increased”, the “sIPSC Amplitude” value came to 55.1 pA and the “sIPSC Decay” value is given as 23.8 ms. Also, the “sIPSC Frequency” value in experiment [3] is reported as 5.6 Hz.

As for `C[C@@]1(O)CC[C@@]2(C)[C@H](CC[C@@H]3[C@@H]2CC[C@]2(C)[C@@H](C(=O)Cn4nccn4)CC[C@@H]32)C1` [SGE-516], the EC50 at α1β2γ2 GABAA receptors (potentiation of current at GABA EC20 (2 μM), n = 3, read-out: EC50, α1β2γ2) was determined as 61 nM. The Emax on α1β2γ2 GABAA receptors (relative percentage potentiation of GABA EC20 current, read-out: Emax ± S.E.M., α1β2γ2) amounted to 219%. In experiment [1], the “tonic current during acute exposure” value came out at 49.2±8.9 pA. For the same compound, the “modulation of GABA receptor trafficking” value in experiment [2] is listed as “modulated”. Further, in experiment [3], the “mean sIPSC amplitude before versus during exposure” value was “no significant difference”, the “mean sIPSC decay time” value is on record as “significantly increased”, the “sIPSC Amplitude” value is recorded as 52.9 pA and the “sIPSC Decay” value was 15.1 ms. The “sIPSC Frequency” value in experiment [3] came out at 4.6 Hz.

For `CC(=O)[C@H]1CC[C@H]2[C@@H]3CC[C@H]4C[C@H](O)CC[C@]4(C)[C@H]3CC[C@]12C` [ALLO, Allopregnanolone], the “pEC50 ± S.E.M., α1β2γ2” value at α1β2γ2 GABAA receptors (potentiation of current at GABA EC20 (2 μM), n = 3) was determined as 6.9 ± 0.2. Further, the “tonic current during acute exposure” value in experiment [1] is reported as 58.3±13.0 pA. In addition, the “modulation of GABA receptor trafficking” value in experiment [2] is recorded as “modulated”. In addition, in experiment [3], the “mean sIPSC amplitude before versus during exposure” value is given as “no significant difference”, the “mean sIPSC decay time” value is “significantly increased”, the “sIPSC Amplitude” value was 39.1 pA and the “sIPSC Decay” value is recorded as 19.2 ms. In addition, in experiment [3], the “sIPSC Frequency” value is reported as 3.4 Hz.

Broadly, the EC50 is the concentration giving half of the maximal effect. One may read the Emax as the greatest response seen or fitted, relative to the assay's reference.
